The source of these data is patent publication US11359011B2, “Treatment and prevention of cardiovascular disease” (Edifice Health, Inc., priority 2019, dated 2022).

The test system of assay [1] is estrogen levels. The note with it: while raising testosterone levels; cited from earlier work.
Assay [2] concerns Mouse thoracic aortas. Kind of assay: Acetylcholine relaxation of mouse thoracic aortic rings on an isometric wire myograph after exposure to MIG. Particulars: mouse thoracic aortic sections incubated with different concentrations of recombinant mouse MIG, pre-contracted with U46619; FIG. 6. The procedure: Mouse thoracic aortas were carefully dissected, and vessels were cut into small rings and mounted on an isometric wire myograph chambers (Danish Myo Technology) and subjected to a normalization protocol. Following normalization, the vessels were incubated with either PBS or different concentrations of recombinant mouse MIG (R&D systems, catalog number 492-MM). A concentration-dependent contraction curve was created by accumulative application of the prostaglandin agonist U46619. Subsequently, concentration-dependent relaxation curves of Acetylcholine were conducted on these vessels and percent relaxation calculated for each dose.

On to `N#Cc1ccc(C(c2ccc(C#N)cc2)n2cncn2)cc1` [Letrozole], for which the “reduction of estrogen levels” value in assay [1] is given as 98%.

B1: MIG: recombinant mouse MIG (R&D systems, catalog number 492-MM); monokine induced by gamma interferon, CXC chemokine (protein, UniProt P18340 22-126, looked up)
C-X-C motif chemokine 9: TLVIRNARCSCISTSRGTIHYKSLKDLKQFAPSPNCNKTEIIATLKNGDQTCLDPDSANVKKLMKEWEKKISQKKKQKRGKKHQKNMKNRKPKTPQSRRRSRKTT
Consider B1, for which the “effect on vasorelaxation (percent relaxation to Acetylcholine)” value in assay [2] is “impaired vascular reactivity with increasing concentrations of MIG”.
